In general, pIC50 refers to the negative decadic logarithm of the IC50, by convention in mol/L. As a reminder, the melting point is the temperature of the solid-liquid transition.

In one data set the test system is PC3. As to the kind of experiment: Cell survival assay, PC3 (prostate) tumor cell line. Format: cell-based. The conditions noted are these: Homo sapiens, PC-3; PC3 prostate tumor cells, 48 h exposure, survival by nuclei count; read-out: Cell lines IC50 PC3.
The subject of a further data set is MDA-MB 231. As to the kind of experiment: Cell survival assay, MDA-MB 231 (breast) tumor cell line. Format: cell-based. To be noted: Homo sapiens; MDA-MB 231 breast tumor cells, 48 h exposure, survival by nuclei count; read-out: Cell lines IC50 MDA-MB 231.
Another data set deals with NCI. Briefly: Cell survival assay, NCI (lung) tumor cell line. In kind it is cell-based. The conditions noted are these: NCI lung tumor cells, 48 h exposure, survival by nuclei count; read-out: Cell lines IC50 NCI.
The next data set deals with HCT 116. Briefly: Cell survival assay, HCT 116 (colon) tumor cell line. Format: cell-based. To be noted: Homo sapiens; HCT 116 colon tumor cells, 48 h exposure, survival by nuclei count; read-out: Cell lines IC50 HCT 116.
A further data set deals with Huh7. Briefly: Cell survival assay, Huh7 (liver) tumor cell line. In kind it is cell-based. The conditions noted are these: Homo sapiens, Huh-7; Huh7 liver tumor cells, 48 h exposure, survival by nuclei count; read-out: Cell lines IC50 Huh7. Here is the method: (§1) Skin diploid fibroblastic cells were provided by BIOPREDIC International Company (Rennes, France). Caco-2 cells and Huh7 cells were obtained from the ECAC collection. Cells were grown according to ECAC recommendations. The RLEC-F1 clone was derived from an established rat biliary epithelial cell line as previously described. The toxicity test of the compounds on these cells was as follows: 4 × 10^3 cells were seeded in 96 multiwell plates and left for 24 h for attachment, spreading, and growing. Then they were exposed for 48 h to increasing concentrations of the compounds, ranging from […] in a final volume of 80 μL of culture medium. They were then fixed with 4% paraform-aldehyde solution and the nuclei were stained with […] and counted using automated imaging analysis (Simple PCI software).

For another data set, the system named is Caco2. As to the kind of experiment: Cell survival assay, Caco2 (colon) tumor cell line. In kind it is cell-based. The conditions noted are these: Homo sapiens, Caco-2; Caco2 colon tumor cells, 48 h exposure, survival by nuclei count; read-out: Cell lines IC50 Caco2. Here is the method:
as §1

Data set [1] has as its system Skin diploid fibroblastic cells. Briefly: Cell survival assay, normal fibroblasts. The conditions noted are these: Fibroblast, 48 h exposure, survival by nuclei count, read-out: Cell lines IC50 Fibroblats. Format: cell-based. Here is the method: as §1
In the next data set the target is DYRK1A (Homo sapiens, UniProt Q13627). Briefly: In vitro kinase inhibition assay DYRK1A. The conditions noted are these: for pIC50: 15 μM ATP, 30°C, buffer A, Woodtide substrate. Format: biochemical.
For another data set, the target named is GSK-3α/β. As to the kind of experiment: In vitro kinase inhibition assay GSK3α/β. In kind it is biochemical, porcine. To be noted: for pIC50: 15 μM ATP, 30°C, buffer A, GS-1 substrate.
Another data set deals with T1, CDK5/p25 (Homo sapiens, UniProt Q00535).
T1 construct: made in house
T1 sequence (Q00535 whole entry): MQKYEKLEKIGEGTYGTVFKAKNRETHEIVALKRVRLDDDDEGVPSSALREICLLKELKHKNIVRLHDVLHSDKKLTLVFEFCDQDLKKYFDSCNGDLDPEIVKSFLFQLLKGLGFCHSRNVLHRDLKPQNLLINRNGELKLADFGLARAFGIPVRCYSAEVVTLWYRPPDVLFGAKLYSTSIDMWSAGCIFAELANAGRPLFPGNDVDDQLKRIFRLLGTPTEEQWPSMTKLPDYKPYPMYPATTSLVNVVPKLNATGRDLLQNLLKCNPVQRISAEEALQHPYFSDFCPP
T1 sequence (Q15078 99-307 partner limits assumed): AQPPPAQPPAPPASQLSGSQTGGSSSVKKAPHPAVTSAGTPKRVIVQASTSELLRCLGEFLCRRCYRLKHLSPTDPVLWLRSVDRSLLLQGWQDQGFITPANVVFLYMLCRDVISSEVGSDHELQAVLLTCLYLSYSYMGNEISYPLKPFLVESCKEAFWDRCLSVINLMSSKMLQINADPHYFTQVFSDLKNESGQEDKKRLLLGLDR
As to the kind of experiment: In vitro kinase inhibition assay CDK5/p25. Format: biochemical. To be noted: for pIC50: 15 μM ATP, 30°C, buffer C, histone H1.

The next data set deals with CLK2. As to the kind of experiment: In vitro kinase inhibition assay CLK2. The conditions noted are these: for pIC50: 15 μM ATP, 30°C, buffer A, RS peptide. Format: biochemical, human.
Another data set has as its target T2, DYRK2 (Homo sapiens, UniProt Q92630).
T2 sequence (Q92630 1-601): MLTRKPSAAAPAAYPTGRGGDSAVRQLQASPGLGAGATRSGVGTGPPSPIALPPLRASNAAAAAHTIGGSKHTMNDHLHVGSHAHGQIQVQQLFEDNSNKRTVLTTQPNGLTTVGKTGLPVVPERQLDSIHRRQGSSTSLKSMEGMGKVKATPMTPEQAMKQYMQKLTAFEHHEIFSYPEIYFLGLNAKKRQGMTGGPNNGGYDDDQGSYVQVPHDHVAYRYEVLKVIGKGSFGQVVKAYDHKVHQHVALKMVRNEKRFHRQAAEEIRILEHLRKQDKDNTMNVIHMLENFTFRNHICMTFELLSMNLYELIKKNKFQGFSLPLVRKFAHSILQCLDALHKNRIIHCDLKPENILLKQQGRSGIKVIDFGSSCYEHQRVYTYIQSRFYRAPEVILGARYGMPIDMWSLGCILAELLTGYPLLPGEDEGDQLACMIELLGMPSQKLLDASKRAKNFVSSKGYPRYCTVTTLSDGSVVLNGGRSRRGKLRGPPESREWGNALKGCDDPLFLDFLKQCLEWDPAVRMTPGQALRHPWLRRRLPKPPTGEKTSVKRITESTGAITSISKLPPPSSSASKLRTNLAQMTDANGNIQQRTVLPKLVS
As to the kind of experiment: In vitro kinase inhibition assay DYRK2. The conditions noted are these: for pIC50: 15 μM ATP, 30°C, buffer A, Woodtide substrate. Format: biochemical.

The target of a further data set is CLK1 (Homo sapiens, UniProt P49759). Briefly: In vitro kinase inhibition assay CLK1. Format: biochemical. To be noted: for pIC50: 15 μM ATP, 30°C, buffer A, RS peptide.
Chain of CLK1 (P49759 whole entry): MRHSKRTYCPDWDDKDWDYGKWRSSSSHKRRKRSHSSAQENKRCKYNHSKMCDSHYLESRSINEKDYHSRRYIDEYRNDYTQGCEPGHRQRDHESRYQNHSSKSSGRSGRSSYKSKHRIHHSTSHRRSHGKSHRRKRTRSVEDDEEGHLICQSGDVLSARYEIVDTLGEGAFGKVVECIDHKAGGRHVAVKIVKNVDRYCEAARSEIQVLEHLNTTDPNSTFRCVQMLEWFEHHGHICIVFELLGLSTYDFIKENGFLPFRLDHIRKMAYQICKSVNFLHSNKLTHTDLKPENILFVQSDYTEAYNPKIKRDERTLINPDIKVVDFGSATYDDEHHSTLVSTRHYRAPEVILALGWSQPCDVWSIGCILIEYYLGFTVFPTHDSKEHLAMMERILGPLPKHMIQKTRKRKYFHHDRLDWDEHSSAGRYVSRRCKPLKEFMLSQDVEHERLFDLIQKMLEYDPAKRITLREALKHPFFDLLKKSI

pIC50: −log10 of the molar value. Some results are limits rather than exact numbers.

Experimental for CDK5/p25: (§2) Buffer A: 10 mM MgCl2, 1 mM EGTA, 1 mM DTT, 25 mM Tris-HCl pH 7.5, 50 μg heparin/ml. Buffer C: 60 mM ß-glycerophosphate, 15 mM p-nitrophenylphosphate, 25 mM Mops (pH 7.2), 5 mM EGTA, 15 mM MgCl2, 1 mM DTT, 1 mM sodium vanadate, 1 mM phenylphosphate. […] Blank values were subtracted and activities expressed in % of the maximal activity, i.e. in the absence of inhibitors. Controls were performed with appropriate dilutions of DMSO. The kinase peptide substrates were obtained from Millegen (Labege, France). […] ATP (3,000 Ci/mmol; 10 mCi/ml) in a final volume of 30 μl. After 30 min incubation at 30°C, the reaction was stopped by harvesting onto P81 phosphocellulose papers (Whatman) using a FilterMate harvester (Packard) and were washed in 1% phosphoric acid. Scintillation fluid was added and the radioactivity was measured in a Packard counter. CLK1 and CLK3 (human, recombinant, expressed in E. coli as GST fusion proteins) were assayed in buffer A (+ 0.15 mg BSA /ml) with RS peptide ([sequence]) (1μg/assay). […] Its kinase activity was assayed in buffer C, with 1 μg histone H1 /ml. GSK-3α/β (porcine brain, native) was assayed in Buffer A and using a GSK-3 specific substrate (GS-1: [sequence]pEDEEE) (pS stands for phosphorylated serine) [20].
Experimental for CLK1: as §2
Experimental for CLK2: Buffer A: 10 mM MgCl2, 1 mM EGTA, 1 mM DTT, 25 mM Tris-HCl pH 7.5, 50 μg heparin/ml. […] Blank values were subtracted and activities expressed in % of the maximal activity, i.e. in the absence of inhibitors. Controls were performed with appropriate dilutions of DMSO. The kinase peptide substrates were obtained from Millegen (Labege, France). […] ATP (3,000 Ci/mmol; 10 mCi/ml) in a final volume of 30 μl. After 30 min incubation at 30°C, the reaction was stopped by harvesting onto P81 phosphocellulose papers (Whatman) using a FilterMate harvester (Packard) and were washed in 1% phosphoric acid. Scintillation fluid was added and the radioactivity was measured in a Packard counter.
Experimental for DYRK1A: as §2
Experimental for GSK-3α/β: as §2

`O=C1N=C(N2CCN(C3=NC(=O)/C(=C/c4ccccc4)S3)CC2)S/C1=C\c1ccccc1` [Compound 5a, (5Z,5’Z)-2,2’-(Piperazine-1,4-diyl)bis(5-benzylidene-1,3-thiazol-4(5H)-one)] had a melting point greater than 260 °C. Moreover, the pIC50 in the data set on PC3 is less than 4.60. Also, in the data set with MDA-MB 231, the pIC50 is less than 4.60. Besides, the pIC50 with NCI is less than 4.60. For the same molecule, the pIC50 in the data set on HCT 116 was less than 4.60. Moreover, the pIC50 in the data set with Huh7 was less than 4.60. For the same molecule, the pIC50 with Caco2 was 4.60. The negative logarithm of the IC50 (pIC50) in data set [1] is less than 4.60.

Regarding `O=C1NC(=S)S/C1=C\c1ccc2c(c1)OCO2` [Compound 3c, (5Z)-5-(1,3-Benzodioxol-5-ylmethylidene)-2-thioxo-1,3-thiazolidin-4-one], the pIC50 in the data set with PC3, in the data set on MDA-MB 231, in the data set with NCI, in the data set on HCT 116, with Huh7 and in the data set on Caco2 was less than 4.60 each time. In addition, the pIC50 on DYRK1A is 7.15; in [1] it was less than 4.60; against GSK-3α/β, 5.07; on CDK5/p25 it was less than 5.00.

For `COc1ccc(/C=C2\SC(N3CCN(C4=NC(=O)/C(=C/c5ccc(OC)cc5)S4)CC3)=NC2=O)cc1` [Compound 5b, (5Z,5’Z)-2,2’-(Piperazine-1,4-diyl)bis[5-(4-methoxybenzylidene)-1,3-thiazol-4(5H)-one]], the melting point is greater than 260 °C.

Turning to `O=C(O)CCN1C(=O)/C(=C/c2ccc3c(c2)OCCO3)SC1=S` [Compound 3g, 3-[(5Z)-5-(2,3-Dihydro-1,4-benzodioxin-6-ylmethylidene)-4-oxo-2-thioxo-1,3-thiazolidin-3-yl]propanoic acid], the melting point lay within 226 to 228 °C.

Regarding `O=C(O)CCN1C(=O)/C(=C/c2ccccc2)SC1=S` [Compound 3d, 3-[(5Z)-5-Benzylidene-4-oxo-2-thioxo-1,3-thiazolidin-3-yl]propanoic acid], the melting point was in the range of 224 to 226 °C.

For `COc1ccc(/C=C2\SC(NCCCN3CCN(CCCNC4=NC(=O)/C(=C/c5ccc(OC)cc5)S4)CC3)=NC2=O)cc1` [Compound 5d, (5Z,5’Z)-2,2’-[Piperazine-1,4-diylbis(propane-3,1-diylimino)]bis[5-(4-methoxybenzylidene)-1,3-thiazol-4(5H)-one]], the melting point lay within 220 to 222 °C. On DYRK1A, the “Activity towards DYRK1A (in words)” value is on record as “nanomolar inhibition potency” and the pIC50 was 7.39. Besides, at CLK2, the pIC50 is 5.11. The molecule further gave a pIC50 against GSK-3α/β of less than 5.00. The pIC50 at DYRK2 is 6.22. At CDK5/p25, the pIC50 was less than 5.00. At CLK1, this molecule showed a pIC50 of 6.30.

For `O=C1N=C(N2CCN(C3=NC(=O)/C(=C/c4ccc5c(c4)OCO5)S3)CC2)S/C1=C\c1ccc2c(c1)OCO2` [Compound 5c, (5Z,5’Z)-2,2’-(Piperazine-1,4-diyl)bis[5-(1,3-benzodioxol-5-ylmethylene)-1,3-thiazol-4(5H)-one]], the pIC50 is 4.40 with PC3; less than 4.60 in the data set on MDA-MB 231; less than 4.60 with NCI; less than 4.60 with HCT 116; less than 4.60 in the data set on Huh7; 4.70 with Caco2. Moreover, the pIC50 in data set [1] is 4.40.

With `COc1ccc(/C=C2\SC(=S)NC2=O)cc1` [Compound 3b, (5Z)-5-(4-Methoxybenzylidene)-2-thioxo-1,3-thiazolidin-4-one], the pIC50 with PC3, with MDA-MB 231, with NCI, with HCT 116, in the data set on Huh7 and with Caco2 was less than 4.60 each time. The pIC50 on DYRK1A is less than 5.00; in [1] it was less than 4.60; against CLK2, less than 5.00; against GSK-3α/β, less than 5.00; at DYRK2, less than 5.00; against CDK5/p25, less than 5.00. Moreover, the pIC50 at CLK1 is less than 5.00. For the same molecule, at DYRK1A, the “Activity towards DYRK1A (in words)” value was “inactive”. The “Activity towards CLK2 (in words)” value with CLK2 is “inactive”. The “Activity towards GSK3α/β (in words)” value in the data set on GSK-3α/β was “inactive”. For the same molecule, the “Activity towards DYRK2 (in words)” value on DYRK2 was “inactive”. Besides, the “Activity towards CDK5/p25 (in words)” value at CDK5/p25 was “inactive”. At CLK1, the “Activity towards CLK1 (in words)” value was “inactive”.

The molecule `O=C1N=C(NCCCN2CCN(CCCNC3=NC(=O)/C(=C/c4ccc5c(c4)OCO5)S3)CC2)S/C1=C\c1ccc2c(c1)OCO2` [Compound 5e, (5Z,5’Z)-2,2’-[Piperazine-1,4-diylbis(propane-3,1-diylimino)]bis[5-(1,3-benzodioxol-5-ylmethylene)-1,3-thiazol-4(5H)-one]] displayed a melting point of 222 to 224 °C.
